# Reference: patent publication US12187709B2 (Genentech, Inc., priority 2021, dated 2025)
# Experiments:
# Cbl-b = Cbl-b (Homo sapiens (Human), UniProt Q13191); assay: Cbl-b LCK Ub TR-FRET assay (Cbl-b Lck HTRF); assay type: biochemical; conditions: for IC50: Cbl-b LCK Ub TR-FRET; for fold-selectivity (Cbl-b over C-cbl) / (fold-selectivity) Cbl-b and C-Cbl Selectivity: ratio C-cbl Lck HTRF IC50 / Cbl-b Lck HTRF IC50
# Method in brief: (§1)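 Signal is read once the detection mix has stood 20 min at ambient temperature. Curves are anchored by DMSO as maximum and by omission of LCK as minimum.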
# c-Cbl = c-Cbl (Homo sapiens (Human), UniProt P22681); assay: C-Cbl LCK Ub TR-FRET assay (C-cbl Lck HTRF); assay type: biochemical
# c-Cbl, sequence (P22681 47-435): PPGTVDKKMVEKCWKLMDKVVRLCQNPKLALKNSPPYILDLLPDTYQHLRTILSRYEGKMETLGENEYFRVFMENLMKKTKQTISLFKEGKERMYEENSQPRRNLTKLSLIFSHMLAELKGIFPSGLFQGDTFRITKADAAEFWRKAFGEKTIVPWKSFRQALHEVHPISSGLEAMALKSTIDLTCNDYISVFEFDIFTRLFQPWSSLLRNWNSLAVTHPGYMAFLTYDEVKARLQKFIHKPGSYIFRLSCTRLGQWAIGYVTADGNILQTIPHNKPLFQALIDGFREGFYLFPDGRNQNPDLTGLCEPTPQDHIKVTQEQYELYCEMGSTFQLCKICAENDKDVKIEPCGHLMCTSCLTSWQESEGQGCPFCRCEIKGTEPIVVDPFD
# Method in brief: as §1
# c-Cbl (residues 47-435) = c-Cbl (residues 47-435) (Homo sapiens (Human), UniProt P22681); assay: c-Cbl SPR assay; assay type: binding; conditions: 20° C.
# c-Cbl (residues 47-435), sequence (P22681 47-435): as above
# Experimental: Affinity of binding to Cbl-b and c-Cbl for compounds described herein was assessed by surface plasmon resonance (SPR) according to the following protocol.
# A surface capture range of 1300-1500 RU of protein was used for both isoforms.
# For SPR measurements, 6 concentrations with 2 fold serial dilution were measured with blanks flanking each series for double referencing. […] SPR sensorgrams were recorded in multi-cycle kinetics format, with a contact time of 60 seconds and a flow rate of 40 μl/min, the dissociation time was varied between 120-1200 seconds aiming for 4-5 half-lives of the measured interaction.
# Kinetic and affinity parameters were extracted from the multicycle kinetics data fitting to a 1:1 binding model using the Biacore™ Incyte evaluation software (Cytiva).
# Chaser assay utilize a single cycle kinetics SPR experiment with a contact time of 120 seconds, a flow rate of 50 μl/min and a dissociation time of 450 seconds. Single cycle kinetics titration utilized an initial blank injection and 5 concentrations with 2 fold serial dilution with a maximum concentration of 500 nM, blanked to a preceding 6 point blank single cycle kinetics injection for double referencing.
# The kd is measured independently by determining the percentage unoccupied compound binding site over time by measuring the binding of a chaser compound measured by SPR.
# Chaser binding was measured by a multicycle kinetics SPR experiment using a contact time of 20 seconds, a flow rate of 30 μl/min, and a dissociation time of 120 seconds. […] The % compound bound at a given time was determined by comparison to a single injection of chaser preceding the single cycle kinetics titration defined below. % Compound Bound=(1−(RUT/RUT0))*100
# The % compound bound is plotted against time in seconds and fit to a single exponential, where the exponent represents the kd of the compound-protein complex. The single cycle kinetics experiment of the compound is then fit with a fixed kd determined using the chaser.
# [1] = molecular target: Human Cbl-b (residues 40-426) (Homo sapiens (Human), UniProt Q13191); assay: Cbl-b SPR assay; assay type: binding; conditions: for Fold of selectivity: C-cbl SPR Kd vs Cbl-b SPR Kd; for Kd: SPR, 20° C.
# Human Cbl-b (residues 40-426), sequence (Q13191 40-426): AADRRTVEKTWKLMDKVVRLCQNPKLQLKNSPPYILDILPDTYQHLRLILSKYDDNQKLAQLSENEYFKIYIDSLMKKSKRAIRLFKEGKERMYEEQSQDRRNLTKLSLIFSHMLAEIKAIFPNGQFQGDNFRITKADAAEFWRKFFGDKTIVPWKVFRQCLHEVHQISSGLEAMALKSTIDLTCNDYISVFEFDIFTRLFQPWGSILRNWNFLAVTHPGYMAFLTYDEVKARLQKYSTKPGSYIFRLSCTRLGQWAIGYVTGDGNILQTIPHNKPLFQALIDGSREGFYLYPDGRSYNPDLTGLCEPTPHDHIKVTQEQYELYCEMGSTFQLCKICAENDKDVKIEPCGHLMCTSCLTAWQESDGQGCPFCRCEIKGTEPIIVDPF
# Method in brief: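 Values derive from a 1:1 model fitted to multicycle kinetics on captured protein (1300-1500 RU), using six 2-fold concentrations, 60 s contact and dissociation of 120-1200 s. In the chaser format, kd comes from a single-exponential fit of % site occupancy over time.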
# Cbl-b, sequence (Q13191 40-426): as above
SMILES,IC50 (Cbl-b) [nM],fold-selectivity (Cbl-b over C-cbl) (Cbl-b),IC50 (c-Cbl) [nM],Kd (c-Cbl (residues 47-435)) [nM],Fold of selectivity [1] [×],Kd [1] [nM],IC50 (Cbl-b; Example 121) [nM],(fold-selectivity) Cbl-b and C-Cbl Selectivity (Cbl-b) [x]
"COc1cc([C@@H](c2nncn2C)C2COC2)cc(N2Cc3c(cc(CNC4(C)CCC4)cc3C(F)(F)F)C2=O)c1 (single isomer, unassigned) [Compound 339]",5.6,1.1x,6.3,4.2,2.5,1.7,,
"Cn1cnnc1[C@]1(c2cccc(N3Cc4c(cc(CNC5(C)CCC5)cc4C(F)(F)F)C3=O)c2)C[C@@H](C)C1 [Compound 35, 2-(3-((1r,3r)-3-methyl-1-(4-methyl-4H-1,2,4-triazol-3-yl)cyclobutyl)phenyl)-6-(((1-methylcyclobutyl)amino)methyl)-4-(trifluoromethyl)isoindolin-1-one]",9.1,(0.97x),8.8,1.7,3.4,0.5,,
"Cn1cnnc1[C@H](CC1CCCC1)c1cccc(N2Cc3c(cc(CNC4(C)CCC4)cc3C(F)(F)F)C2=O)c1 [Compound 249, (R)-2-(3-(2-cyclopentyl-1-(4-methyl-4H-1,2,4-triazol-3-yl)ethyl)phenyl)-6-(((1-methylcyclobutyl)amino)methyl)-4-(trifluoromethyl)isoindolin-1-one]",100,5.0x,500,300,6.9,49,,
"Cn1cnnc1[C@]1(c2cccc(N3Cc4c(cc(CNC5(C)CCC5)cc4C(F)(F)F)C3=O)c2)C[C@@H]([S@+](C)[O-])C1 (single isomer, unassigned) [Compound 160]",1300,3.9x,5300,1000,0.76,1300,,
"Cn1cnnc1[C@H](c1cccc(N2Cc3c(cc(CNC4(C)CCC4)cc3C(F)(F)F)C2=O)c1)C1CC(OCC(F)F)C1 (single isomer, unassigned) [Compound 263]",10,1.8x,18,10,5.4,1.9,,
"Cn1cnnc1C1(c2cccc(N3Cc4c(cc(CNC5(C)CCC5)cc4C(F)(F)F)C3=O)c2)CC(F)(F)C1 [Compound 61, 2-(3-(3,3-difluoro-1-(4-methyl-4H-1,2,4-triazol-3-yl)cyclobutyl)phenyl)-6-(((1-methylcyclobutyl)amino)methyl)-4-(trifluoromethyl)isoindolin-1-one]",15,(1.7x),25.5,20,5.2,3.7,,
"Cn1cnnc1[C@@H](c1cccc(N2Cc3c(cc(CNCC(C)(C)C)cc3C(F)(F)F)C2=O)c1)C1COC1 (single isomer, unassigned) [Compound 468]",,,7.5,12,7,1.6,5.2,1.4
"Cn1cnnc1[C@@H](c1cccc(N2Cc3c(cc(CNC4(C)CCC4)cc3C(F)(F)F)C2=O)c1)C1CCC1 [Compound 258, (R)-2-(3-(cyclobutyl(4-methyl-4H-1,2,4-triazol-3-yl)methyl)phenyl)-6-(((1-methylcyclobutyl)amino)methyl)-4-(trifluoromethyl)isoindolin-1-one]",170,5.8x,970,2200,13,170,,
"CO[C@H]1C[C@@](c2cccc(N3Cc4c(cc(CNC5(C)CCC5)cc4C(F)F)C3=O)c2)(c2nncn2C)C1 [Compound 116, 4-(difluoromethyl)-2-(3-((1s,3s)-3-methoxy-1-(4-methyl-4H-1,2,4-triazol-3-yl)cyclobutyl)phenyl)-6-(((1-methylcyclobutyl)amino)methyl)isoindolin-1-one]",25,6.0x,150,110,15,8.1,,
"Cn1cnnc1[C@]1(c2cccc(N3Cc4c(cc(CNC5(C)CCC5)cc4C(F)(F)F)C3=O)c2)C[C@]2(CCO2)C1 [Compound 108, 2-(3-((4r,6r)-6-(4-methyl-4H-1,2,4-triazol-3-yl)-1-oxaspiro[3.3]heptan-6-yl)phenyl)-6-(((1-methylcyclobutyl)amino)methyl)-4-(trifluoromethyl)isoindolin-1-one]",17,9.2x,160,120,21,5.2,,
"Cn1cnnc1C1(c2cccc(N3Cc4c(cc(CNC5(C)CCC5)cc4C(F)(F)F)C3=O)c2)CC(OC(F)(F)F)C1 (single isomer, unassigned) [Compound 351, 2-(3-((1r,3r)-1-(4-methyl-4H-1,2,4-triazol-3-yl)-3-(trifluoromethoxy)cyclobutyl)phenyl)-6-(((1-methylcyclobutyl)amino)methyl)-4-(trifluoromethyl)isoindolin-1-one]",6.4,6.4x,20,19,16,1.2,,
"Cn1cnnc1C1(c2cccc(N3Cc4c(cc(CNC5(C)CCC5)cc4C(F)(F)F)C3=O)c2)CCOCC1 [Compound 282, 2-(3-(4-(4-methyl-4H-1,2,4-triazol-3-yl)tetrahydro-2H-pyran-4-yl)phenyl)-6-(((1-methylcyclobutyl)amino)methyl)-4-(trifluoromethyl)isoindolin-1-one]",410,6.5x,2800,2300,10,230,,
"Cn1cnnc1[C@@H](c1cccc(N2Cc3c(cc(CNC4(C)CCC4)cc3C(F)F)C2=O)c1)C1CC(F)C1 (single isomer, unassigned) [Compound 459]",,,6.3,3.2,6.1,0.5,5.9,1.1
"CO[C@H]1C[C@](c2cccc(N3Cc4c(cc(CNC(C)C)cc4C(F)(F)F)C3=O)c2)(c2nncn2C)C1 [Compound 419, 6-((isopropylamino)methyl)-2-(3-((1r,3r)-3-methoxy-1-(4-methyl-4H-1,2,4-triazol-3-yl)cyclobutyl)phenyl)-4-(trifluoromethyl)isoindolin-1-one]",,,190,240,8.2,32,29,6.7
"Cn1cnnc1[C@]1(c2cc(NC3CC(F)(F)C3)nc(N3Cc4c(cc(CNC5(C)CCC5)cc4C(F)(F)F)C3=O)c2)C[C@@H](C)C1 [Compound 48, 2-(6-((3,3-difluorocyclobutyl)amino)-4-((1r,3r)-3-methyl-1-(4-methyl-4H-1,2,4-triazol-3-yl)cyclobutyl)pyridin-2-yl)-6-(((1-methylcyclobutyl)amino)methyl)-4-(trifluoromethyl)isoindolin-1-one]",10,(1.5x),15,11,3.0,3.8,,
"C=C[C@@H](C)Oc1cc(N2Cc3c(cc(CNC4(C)CCC4)cc3C(F)(F)F)C2=O)cc([C@]2(c3nncn3C)C[C@@H](OC)C2)c1 [Compound 213, 2-(3-((R)-but-3-en-2-yloxy)-5-((1s,3S)-3-methoxy-1-(4-methyl-4H-1,2,4-triazol-3-yl)cyclobutyl)phenyl)-6-(((1-methylcyclobutyl)amino)methyl)-4-(trifluoromethyl)isoindolin-1-one]",240,1.9x,440,300,1.8,160,,
"COC1CC([C@H](c2cccc(N3Cc4c(cc(CNC5(C)CCC5)cc4C(F)(F)F)C3=O)c2)c2nncn2C)C1 (single isomer, unassigned) [Compound 131]",740,7.4x,5600,4500,16,280,,
